Data taken from the supplement of paper PMC10307832.

How the values were obtained:
Experiment in all cases: relative viability (nuclei count vs DMSO), 5 days (fraction); higher = more cells survive
[1] = compound: CC1=CC(=CC=C1)NC2=NC(=CS2)C3=CC=NC=C3 + CC(C)C[C@H](NC(=O)[C@H](Cc1ccccc1)NC(=O)c1cnccn1)B(O)O [Bortezomib] (partner 0.002 µM)
Method in brief: (§1)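 Lung cancer cell lines were pin-tool dosed in 1536-well plates on the day after seeding, with either a lone drug or a fixed anchor-drug dose plus five library-drug doses (not always all listed) in √10 steps. Nuclei were counted on 4× images after 5 days. Relative viability is the ratio of treated-well to vehicle-well nuclei counts, with each value a median of duplicate plates.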

Masitinib + Palbociclib = compound: Cc1ccc(NC(=O)c2ccc(CN3CCN(C)CC3)cc2)cc1Nc1nc(-c2cccnc2)cs1 [Masitinib] + CC(=O)c1c(C)c2cnc(Nc3ccc(N4CCNCC4)cn3)nc2n(C2CCCC2)c1=O [Palbociclib] (partner 0.5 µM)
Method in brief: as §1

Masitinib + Dasatinib = compound: Cc1ccc(NC(=O)c2ccc(CN3CCN(C)CC3)cc2)cc1Nc1nc(-c2cccnc2)cs1 [Masitinib] + Cc1nc(Nc2ncc(C(=O)Nc3c(C)cccc3Cl)s2)cc(N2CCN(CCO)CC2)n1 [Dasatinib] (partner 0.075 µM)
Method in brief: as §1

[2] = compound: CC1=CC(=CC=C1)NC2=NC(=CS2)C3=CC=NC=C3 + C[C@]1(O)C[C@@H](c2nc(-c3ccc4ccc(-c5ccccc5)nc4c3)c3c(N)nccn32)C1 [Linsitinib] (partner 1 µM)
Method in brief: as §1

Cell Line	relative viability ([1]; first compound 0.08 µM)	relative viability ([1]; first compound 0.253 µM)	relative viability ([1]; first compound 0.8 µM)	relative viability ([1]; first compound 2.53 µM)	relative viability ([1]; first compound 8 µM)	relative viability (Masitinib + Palbociclib; first compound 0.01 µM)	relative viability (Masitinib + Palbociclib; first compound 0.03162 µM)	relative viability (Masitinib + Palbociclib; first compound 0.1 µM)	relative viability (Masitinib + Palbociclib; first compound 0.3162 µM)	relative viability (Masitinib + Palbociclib; first compound 1 µM)	relative viability (Masitinib + Dasatinib; first compound 0.01 µM)	relative viability (Masitinib + Dasatinib; first compound 0.03162 µM)	relative viability (Masitinib + Dasatinib; first compound 0.1 µM)	relative viability (Masitinib + Dasatinib; first compound 0.3162 µM)	relative viability (Masitinib + Dasatinib; first compound 1 µM)	relative viability ([2]; first compound 0.08 µM)	relative viability ([2]; first compound 0.253 µM)	relative viability ([2]; first compound 0.8 µM)	relative viability ([2]; first compound 2.53 µM)	relative viability ([2]; first compound 8 µM)
PC-3 [JPC-3]	0.743	0.821	0.577	0.636	0.361	0.438	0.498	0.553	0.526	0.466	0.984	0.839	0.973	0.927	0.954	0.888	0.878	0.772	0.903	0.91
PC-14	0.966	0.899	0.685	0.909	0.499	0.57	0.323	0.636	0.57	0.621	0.266	0.241	0.28	0.181	0.217	0.858	0.944	0.86	1.01	0.844
RERF-LC-KJ	0.963	1.07	0.786	0.813	0.7	1.05	1.02	1.09	1.21	0.938	0.881	0.806	0.975	0.667	0.702	0.78	0.872	0.684	0.683	0.563
SK-LU-1	0.905	1.07	0.884	1.3	1.19	0.431	0.362	0.373	0.405	0.416	0.157	0.202	0.174	0.195	0.18	1.03	1.1	0.815	1.17	1
SW 1573	1.06	0.954	1.03	1.09	0.807	0.357	0.372	0.446	0.41	0.374	0.452	0.463	0.526	0.52	0.476	0.845	0.65	0.705	0.901	0.779
